Reference: ChEMBL document CHEMBL3885881, “DrugMatrix”

Organism: Rattus norvegicus
Assay: DrugMatrix - Regimen: Daily Repeat
Format: toxicity, organism-based, Sprague-Dawley
Parameters: regimen Daily Repeat, gender Male, age 6-8 weeks
Conditions: in vivo, po, route oral GAVAGE, vehicle 100 % WATER; for ABSOLUTE BASOPHIL / ABSOLUTE EOSINOPHIL / ABSOLUTE LYMPHOCYTE / ABSOLUTE MONOCYTE / ABSOLUTE SEGMENTED NEUTROPHIL / BASOPHIL / EOSINOPHIL / ERYTHROCYTE COUNT / HEMATOCRIT / HEMOGLOBIN / LEUKOCYTE COUNT / LYMPHOCYTE / MEAN CORPUSCULAR HEMOGLOBIN / MEAN CORPUSCULAR HEMOGLOBIN CONCENTRATION / MEAN CORPUSCULAR VOLUME / MONOCYTE / NEUTROPHIL / NUCLEATED RED BLOOD CELLS / PLATELET COUNT: tissue Blood; for ALANINE AMINOTRANSFERASE / ALBUMIN / ALKALINE PHOSPHATASE / ASPARTATE AMINOTRANSFERASE / BLOOD UREA NITROGEN / CARBON DIOXIDE / CHLORIDE / CHOLESTEROL / CREATINE PHOSPHOKINASE / CREATININE / GLUCOSE / LACTATE DEHYDROGENASE / LIPASE / PHOSPHORUS / POTASSIUM / SODIUM / TOTAL BILIRUBIN / TOTAL PROTEIN / URIC ACID: tissue Plasma
[1] = 0 mg/kg, 72 h, dose level Control, time 3 day
[2] = 0 mg/kg, 120 h, dose level Control, time 5 day
[3] = 50 mg/kg, 72 h, dose level Low, time 3 day

Structure (SMILES): Cc1ncc([N+](=O)[O-])n1CCO [METRONIDAZOLE]
- ABSOLUTE BASOPHIL [1]: 0 CELLS/uL
- ABSOLUTE EOSINOPHIL [1]: 86.33 CELLS/uL
- ABSOLUTE LYMPHOCYTE [1]: 12090.17 CELLS/uL
- ABSOLUTE MONOCYTE [1]: 166.67 CELLS/uL
- ABSOLUTE SEGMENTED NEUTROPHIL [1]: 1090.17 CELLS/uL
- BASOPHIL [1]: 0%
- EOSINOPHIL [1]: 0.67%
- ERYTHROCYTE COUNT [1]: 5.57 x10E6/uL
- HEMATOCRIT [1]: 35.33%
- HEMOGLOBIN [1]: 13.83 G/DL
- LEUKOCYTE COUNT [1]: 13.43 x10E3/uL
- LYMPHOCYTE [1]: 89.83%
- MEAN CORPUSCULAR HEMOGLOBIN [1]: 24.88 pg
- MEAN CORPUSCULAR HEMOGLOBIN CONCENTRATION [1]: 39.15 G/DL
- MEAN CORPUSCULAR VOLUME [1]: 63.52 fL
- MONOCYTE [1]: 1.17%
- NEUTROPHIL [1]: 8.33%
- NUCLEATED RED BLOOD CELLS [1]: 0 /100WBC
- PLATELET COUNT [1]: 1181.33 x10E3/uL
- ALANINE AMINOTRANSFERASE [1]: 48.33 u/L
- ALBUMIN [1]: 4.1 G/DL
- ALKALINE PHOSPHATASE [1]: 395 u/L
- ASPARTATE AMINOTRANSFERASE [1]: 81.83 u/L
- BLOOD UREA NITROGEN [1]: 15.83 mg/dL
- CARBON DIOXIDE [1]: 24.17 mmol/L
- CHLORIDE [1]: 103.83 MEQ/L
- CHOLESTEROL [1]: 63.67 mg/dL
- CREATINE PHOSPHOKINASE [1]: 372.83 u/L
- CREATININE [1]: 0.18 mg/dL
- GLUCOSE [1]: 173.83 mg/dL
- LACTATE DEHYDROGENASE [1]: 188.33 u/L
- LIPASE [1]: 9.5 u/L
- PHOSPHORUS [1]: 11.95 mg/dL
- POTASSIUM [1]: 5.99 MEQ/L
- SODIUM [1]: 144.43 MEQ/L
- TOTAL BILIRUBIN [1]: 0.15 mg/dL
- TOTAL PROTEIN [1]: 5.95 G/DL
- URIC ACID [1]: 1.82 mg/dL
- ABSOLUTE BASOPHIL [2]: 0 CELLS/uL
- ABSOLUTE EOSINOPHIL [2]: 26.67 CELLS/uL
- ABSOLUTE LYMPHOCYTE [2]: 7583.83 CELLS/uL
- ABSOLUTE MONOCYTE [2]: 131.33 CELLS/uL
- ABSOLUTE SEGMENTED NEUTROPHIL [2]: 674.83 CELLS/uL
- BASOPHIL [2]: 0%
- EOSINOPHIL [2]: 0.33%
- ERYTHROCYTE COUNT [2]: 5.78 x10E6/uL
- HEMATOCRIT [2]: 36.48%
- HEMOGLOBIN [2]: 14.03 G/DL
- LEUKOCYTE COUNT [2]: 8.42 x10E3/uL
- LYMPHOCYTE [2]: 89.83%
- MEAN CORPUSCULAR HEMOGLOBIN [2]: 24.3 pg
- MEAN CORPUSCULAR HEMOGLOBIN CONCENTRATION [2]: 38.52 G/DL
- MEAN CORPUSCULAR VOLUME [2]: 63.15 fL
- MONOCYTE [2]: 1.67%
- NEUTROPHIL [2]: 8.17%
- NUCLEATED RED BLOOD CELLS [2]: 0 /100WBC
- PLATELET COUNT [2]: 1186.67 x10E3/uL
- ALANINE AMINOTRANSFERASE [2]: 50.17 u/L
- ALBUMIN [2]: 4.07 G/DL
- ALKALINE PHOSPHATASE [2]: 367.5 u/L
- ASPARTATE AMINOTRANSFERASE [2]: 81.67 u/L
- BLOOD UREA NITROGEN [2]: 16.17 mg/dL
- CARBON DIOXIDE [2]: 32.33 mmol/L
- CHLORIDE [2]: 101.5 MEQ/L
- CHOLESTEROL [2]: 65.33 mg/dL
- CREATINE PHOSPHOKINASE [2]: 255.33 u/L
- CREATININE [2]: 0.17 mg/dL
- GLUCOSE [2]: 139.33 mg/dL
- LACTATE DEHYDROGENASE [2]: 95 u/L
- LIPASE [2]: 10.5 u/L
- PHOSPHORUS [2]: 10.38 mg/dL
- POTASSIUM [2]: 6.11 MEQ/L
- SODIUM [2]: 145.55 MEQ/L
- TOTAL BILIRUBIN [2]: 0.17 mg/dL
- TOTAL PROTEIN [2]: 5.98 G/DL
- URIC ACID [2]: 0.93 mg/dL
- ABSOLUTE BASOPHIL [3]: 0 CELLS/uL
- ABSOLUTE EOSINOPHIL [3]: 59.33 CELLS/uL
- ABSOLUTE LYMPHOCYTE [3]: 15201.67 CELLS/uL
- ABSOLUTE MONOCYTE [3]: 170 CELLS/uL
- ABSOLUTE SEGMENTED NEUTROPHIL [3]: 1569 CELLS/uL
- BASOPHIL [3]: 0%
- EOSINOPHIL [3]: 0.33%
- ERYTHROCYTE COUNT [3]: 5.47 x10E6/uL
- HEMATOCRIT [3]: 35.2%
- HEMOGLOBIN [3]: 13.83 G/DL
- LEUKOCYTE COUNT [3]: 17 x10E3/uL
- LYMPHOCYTE [3]: 88.67%
- MEAN CORPUSCULAR HEMOGLOBIN [3]: 25.3 pg
- MEAN CORPUSCULAR HEMOGLOBIN CONCENTRATION [3]: 39.3 G/DL
- MEAN CORPUSCULAR VOLUME [3]: 64.4 fL
- MONOCYTE [3]: 1%
- NEUTROPHIL [3]: 10%
- NUCLEATED RED BLOOD CELLS [3]: 0 /100WBC
- PLATELET COUNT [3]: 1236.33 x10E3/uL
- ALANINE AMINOTRANSFERASE [3]: 54.33 u/L
- ALBUMIN [3]: 3.9 G/DL
- ALKALINE PHOSPHATASE [3]: 296.67 u/L
- ASPARTATE AMINOTRANSFERASE [3]: 72 u/L
- BLOOD UREA NITROGEN [3]: 13.67 mg/dL
- CARBON DIOXIDE [3]: 28.33 mmol/L
- CHLORIDE [3]: 100.67 MEQ/L
- CHOLESTEROL [3]: 65 mg/dL
- CREATINE PHOSPHOKINASE [3]: 186.33 u/L
- CREATININE [3]: 0.12 mg/dL
- GLUCOSE [3]: 155.67 mg/dL
- LACTATE DEHYDROGENASE [3]: 82.33 u/L
- LIPASE [3]: 9.33 u/L
- PHOSPHORUS [3]: 12.27 mg/dL
- POTASSIUM [3]: 6.41 MEQ/L
- SODIUM [3]: 142.37 MEQ/L
- TOTAL BILIRUBIN [3]: 0.17 mg/dL
- TOTAL PROTEIN [3]: 5.6 G/DL
- URIC ACID [3]: 1.5 mg/dL
